From patent publication US20250152585A1, “PHARMACEUTICAL COMPOUND” (Duke Street Bio Limited, priority 2022, published 2025)
Where two headings read alike, the source gives them in different places.

Assays:
[1] = molecular target: T1, full length N-terminally FLAG-tagged PARP1 (Homo sapiens, UniProt P09874); test: PARP1 biochemical DELFIA assay (auto-PARylation); parameters: recombinant full length human N-terminally FLAG-tagged PARP1
[2] = molecular target: T2, N-terminally FLAG-tagged PARP2 (amino acids 1-583) (Homo sapiens, UniProt Q9UGN5); test: PARP2 probe displacement HTRF assay; assay type: binding; details: binned Kd
T2 construct: N-terminally FLAG-tagged PARP2 (amino acids 1-583)
Protocol: Data analysis was performed identical as for PARP1.

[3] = molecular target: T1, full length N-terminally FLAG-tagged PARP1; test: PARP1 probe displacement HTRF assay; details: for Selectivity: PARP1 over PARP2, ratio Kd (PARP2)/Kd (PARP1); for Kd: binned Kd
[4] = binned IC50, PARP1 biochemical DELFIA assay
[5] = read-out: PARP1 HTRF, PARP1 probe displacement HTRF
[6] = binned IC50, biochemical auto-PARylation assay
[7] = read-out: PARP1 HTRF, probe displacement HTRF

T2 sequence (Q9UGN5 whole entry, the tested form may be a part): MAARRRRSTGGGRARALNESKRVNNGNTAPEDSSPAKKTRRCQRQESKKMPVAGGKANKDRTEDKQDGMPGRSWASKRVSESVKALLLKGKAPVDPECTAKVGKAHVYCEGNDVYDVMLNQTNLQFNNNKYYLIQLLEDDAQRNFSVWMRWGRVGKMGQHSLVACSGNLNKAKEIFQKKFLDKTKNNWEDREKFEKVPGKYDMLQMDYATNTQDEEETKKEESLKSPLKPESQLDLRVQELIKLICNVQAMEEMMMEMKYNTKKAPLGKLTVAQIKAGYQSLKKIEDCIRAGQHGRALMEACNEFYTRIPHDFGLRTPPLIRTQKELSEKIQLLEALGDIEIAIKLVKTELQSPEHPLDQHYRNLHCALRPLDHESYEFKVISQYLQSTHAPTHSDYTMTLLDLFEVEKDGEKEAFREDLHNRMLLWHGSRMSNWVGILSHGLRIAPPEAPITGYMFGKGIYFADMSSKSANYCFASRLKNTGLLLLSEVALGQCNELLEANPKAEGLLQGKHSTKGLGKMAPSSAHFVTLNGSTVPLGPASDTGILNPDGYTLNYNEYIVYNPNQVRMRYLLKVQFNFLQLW
T1 sequence (P09874 whole entry, the tested form may be a part): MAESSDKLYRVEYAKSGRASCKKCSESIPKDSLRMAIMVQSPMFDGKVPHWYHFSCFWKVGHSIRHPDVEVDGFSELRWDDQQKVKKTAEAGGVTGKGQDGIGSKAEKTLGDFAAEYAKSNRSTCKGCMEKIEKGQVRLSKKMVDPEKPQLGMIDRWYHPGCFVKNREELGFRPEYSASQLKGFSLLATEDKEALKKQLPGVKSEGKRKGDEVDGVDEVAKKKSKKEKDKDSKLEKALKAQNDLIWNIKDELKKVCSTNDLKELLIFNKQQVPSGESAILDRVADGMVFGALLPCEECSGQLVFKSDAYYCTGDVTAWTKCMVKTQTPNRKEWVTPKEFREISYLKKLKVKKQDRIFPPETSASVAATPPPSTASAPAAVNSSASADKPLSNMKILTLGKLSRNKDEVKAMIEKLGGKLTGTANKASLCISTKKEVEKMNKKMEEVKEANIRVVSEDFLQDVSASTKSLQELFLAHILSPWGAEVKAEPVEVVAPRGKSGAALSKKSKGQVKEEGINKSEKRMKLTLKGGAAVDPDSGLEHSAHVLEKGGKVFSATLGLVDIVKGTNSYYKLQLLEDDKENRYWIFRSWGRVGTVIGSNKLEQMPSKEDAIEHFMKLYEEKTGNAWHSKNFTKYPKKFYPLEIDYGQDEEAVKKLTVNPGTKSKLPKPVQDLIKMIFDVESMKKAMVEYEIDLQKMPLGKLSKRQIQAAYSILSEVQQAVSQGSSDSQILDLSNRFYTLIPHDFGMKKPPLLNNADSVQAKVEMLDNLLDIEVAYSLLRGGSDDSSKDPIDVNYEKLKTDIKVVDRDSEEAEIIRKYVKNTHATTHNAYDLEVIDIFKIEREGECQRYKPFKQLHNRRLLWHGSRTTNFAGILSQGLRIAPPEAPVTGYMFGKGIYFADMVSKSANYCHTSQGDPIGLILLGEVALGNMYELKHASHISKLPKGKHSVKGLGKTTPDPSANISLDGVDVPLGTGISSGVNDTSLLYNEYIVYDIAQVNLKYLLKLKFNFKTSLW

SMILES | IC50 [1, 4] | Kd ([2]; PARP2 probe displacement HTRF) | Selectivity ([3]; probe displacement HTRF) | Kd [3, 5] | IC50 [1, 6] | Kd ([2]; probe displacement HTRF) | Kd [3, 7] | Kd ([3]; PARP1 HTRF, probe displacement HTRF)
CCc1ccc(C2CCN(C3CCN(c4cnc(C(=O)NC)cc4C)CC3)C2)[nH]c1=O (single isomer, unassigned) [Compound 217a] | 100 to 1000 nM | > 10000 nM | − (− indicates a value of less than 10) | 100 to 1000 nM | – | – | – | –
CNC(=O)c1cc(C)c(N2CCC(N3CCC(c4cc5ccc(F)cc5c(=O)[nH]4)C3)CC2)cn1 (single isomer, unassigned) [Compound 202b] | < 10 nM | 10 to 100 nM | + (+ indicates a value of 10 to less than 50) | < 10 nM | – | – | – | –
CCc1ccc(C2CCN(C3CCN(c4ccc(C(=O)NC)nc4Cl)CC3)C2)[nH]c1=O (single isomer, unassigned) [Compound 239a] | – | – | +++ (+++ indicate a value of at least 100) | – | < 10 nM | > 10000 nM | < 10 nM | –
CCc1nc(C(=O)NC)ccc1N1CCC(N2CCCC(c3nc4ccccc4c(=O)[nH]3)C2)CC1 (single isomer, unassigned) [Compound 112a] | 100 to 1000 nM | 1000 to 10000 nM | − (− indicates a value of less than 10) | 100 to 1000 nM | – | – | – | –
CCNC(=O)c1ccc(N2CCC(N3CCC(c4nc5ccccc5c(=O)[nH]4)C3)CC2)cn1 (single isomer, unassigned) [Compound 111b] | < 10 nM | 100 to 1000 nM | +++ (+++ indicate a value of at least 100) | < 10 nM | – | – | – | –
CNC(=O)c1ccc(N2CCC(N3CCCC(c4nc5ccccc5c(=O)[nH]4)C3)CC2)c(C(F)F)n1 (racemic) [Compound 156rac] | 10 to 100 nM | > 10000 nM | ++ (++ indicates a value of 50 to less than 100) | 10 to 100 nM | – | – | – | –
CCc1ccc(C2CCN(C3CCN(c4ccc(C(=O)NCC(F)(F)F)nc4)CC3)C2)[nH]c1=O (racemic) [Compound 153rac] | < 10 nM | 100 to 1000 nM | ++ (++ indicates a value of 50 to less than 100) | < 10 nM | – | – | – | –
CNC(=O)c1ccc(N2CCC(N3CCC(c4nc5c(c(=O)[nH]4)COC5)C3)CC2)cn1 (single isomer, unassigned) [Compound 272a] | – | – | − (− indicates a value of less than 10) | – | > 10000 nM | > 10000 nM | > 10000 nM | –
CNC(=O)c1ccc(N2CCC(CN3CCCC(c4nc5ccccc5c(=O)[nH]4)C3)CC2)cn1 (single isomer, unassigned) [Compound 9a] | 10 to 100 nM | 1000 to 10000 nM | +++ (+++ indicate a value of at least 100) | 10 to 100 nM | – | – | – | –
N#Cc1nc(C(=O)NC2CC2)ccc1N1CCC(N2CCC(c3cc4cccc(F)c4c(=O)[nH]3)C2)CC1 (single isomer, unassigned) [Compound 410b] | – | – | +++ (+++ indicate a value of at least 100) | – | < 10 nM | 100 to 1000 nM | < 10 nM | –
CNC(=O)c1ccc(N2CCC(N3CCC(c4nc5c(c(=O)[nH]4)COC5)C3)CC2)cn1 (single isomer, unassigned) [Compound 272b] | – | – | + (+ indicates a value of 10 to less than 50) | – | 100 to 1000 nM | > 10000 nM | 100 to 1000 nM | –
CC(=O)Nc1ccc(N2CCC(N3CCC(c4cc5ccccc5c(=O)[nH]4)C3)CC2)cn1 (single isomer, unassigned) [Compound 306b] | – | – | +++ (+++ indicate a value of at least 100) | – | < 10 nM | 100 to 1000 nM | < 10 nM | –
CNC(=O)c1ccc(N2CCC(N3CCC(c4ccc(CCOC)c(=O)[nH]4)C3)CC2)cn1 (single isomer, unassigned) [Compound 240b] | – | – | − (− indicates a value of less than 10) | – | 1000 to 10000 nM | > 10000 nM | 1000 to 10000 nM | –
CS(=O)(=O)NC(=O)c1ccc(N2CCC(N3CCC(c4cc5ccccc5c(=O)[nH]4)C3)CC2)cc1 (single isomer, unassigned) [Compound 342b] | – | – | + (+ indicates a value of 10 to less than 50) | – | < 10 nM | 10 to 100 nM | < 10 nM | –
CCc1cnc(C2CCN(C3CCC(F)(F)CC3)C2)[nH]c1=O (single isomer, unassigned) [Compound 38a] | 1000 to 10000 nM | 1000 to 10000 nM | − (− indicates a value of less than 10) | 1000 to 10000 nM | – | – | – | –
CCc1ccc(C2CCN(C3CCN(c4cnc(C(=O)NC)cc4C(F)(F)F)CC3)C2)[nH]c1=O (single isomer, unassigned) [Compound 298b] | – | – | +++ (+++ indicate a value of at least 100) | – | 10 to 100 nM | 1000 to 10000 nM | 10 to 100 nM | –
CNC(=O)c1ccc(N2CCC(N3CCCC(C)(c4nc5ccccc5c(=O)[nH]4)C3)CC2)cn1 (single isomer, unassigned) [Compound 66a] | 1000 to 10000 nM | > 10000 nM | − (− indicates a value of less than 10) | 1000 to 10000 nM | – | – | – | –
O=c1[nH]c(C2CCCN(C3CCN(c4ccc(F)cc4F)CC3)C2)nc2ccccc12 (single isomer, unassigned) [Compound 113a] | 100 to 1000 nM | 100 to 1000 nM | − (− indicates a value of less than 10) | 100 to 1000 nM | – | – | – | –
CCc1ccc(C2CCN(C3CCN(c4ccc(C#N)cn4)CC3)C2)[nH]c1=O (single isomer, unassigned) [Compound 332b] | – | – | +++ (+++ indicate a value of at least 100) | – | < 10 nM | 1000 to 10000 nM | < 10 nM | –
CNC(=O)c1ccc(N2CCC(N3CCCC(c4nc5c(c(=O)[nH]4)CCCC5)C3)CC2)cn1 (single isomer, unassigned) [Compound 146b] | 10 to 100 nM | > 10000 nM | +++ (+++ indicate a value of at least 100) | 10 to 100 nM | – | – | – | –
O=c1[nH]c(C2CCN(C3CCN(c4ccc(C5=NCCN5)cc4)CC3)C2)nc2ccccc12 (racemic) [Compound 307rac] | – | – | − (− indicates a value of less than 10) | – | 10 to 100 nM | 100 to 1000 nM | 10 to 100 nM | –
CNC(=O)c1ccc(N2CCC(N3CCC(c4cc5ccccc5c(=O)[nH]4)C3)CC2)s1 (racemic) [Compound 319rac] | – | – | − (− indicates a value of less than 10) | – | 1000 to 10000 nM | 1000 to 10000 nM | 1000 to 10000 nM | –
N#Cc1ccc(N2CCC(N3CCC(c4nc5ccccc5c(=O)[nH]4)C3)CC2)cc1 (single isomer, unassigned) [Compound 34b] | < 10 nM | 1000 to 10000 nM | +++ (+++ indicate a value of at least 100) | < 10 nM | – | – | – | –
CNC(=O)c1ccc(N2CCC(N3CCC(c4cc5cccc(C(F)(F)F)c5c(=O)[nH]4)C3)CC2)cn1 (racemic) [Compound 135rac] | < 10 nM | 10 to 100 nM | + (+ indicates a value of 10 to less than 50) | < 10 nM | – | – | – | –
O=C(NC1CC1)c1ccc(N2CCC(N3CC4(c5nc6cccc(F)c6c(=O)[nH]5)CC3C4)CC2)c(F)n1 [Compound 376] | – | – | +++ (+++ indicate a value of at least 100) | – | < 10 nM | 100 to 1000 nM | – | < 10 nM
CCc1ccc(C2CCN(C3CCN(c4ccc(C(=O)NC5CC5)nc4)CC3)C2)[nH]c1=O (single isomer, unassigned) [Compound 338a] | – | – | +++ (+++ indicate a value of at least 100) | – | < 10 nM | 100 to 1000 nM | < 10 nM | –
CCNC(=O)c1ccc(N2CCC(N3CCCC(c4nc5ccccc5c(=O)[nH]4)C3)CC2)cn1 (single isomer, unassigned) [Compound 122b] | 10 to 100 nM | 1000 to 10000 nM | − (− indicates a value of less than 10) | 100 to 1000 nM | – | – | – | –
CNC(=O)c1ccc(N2CCC(N3CCCC(c4nc5ccccc5c(=O)[nH]4)C3)CC2)c(F)n1 (racemic) [Compound 103rac] | < 10 nM | 1000 to 10000 nM | +++ (+++ indicate a value of at least 100) | < 10 nM | – | – | – | –
